# Experimental data: ChEMBL document CHEMBL1152948, “Antimycobacterial activity of new 3,5-disubstituted 1,3,4-oxadiazol-2(3H)-one derivatives. Molecular modeling investigations” (2009)
# Calls of active or inactive are those of the source. No cut-off for these calls is given here.
# Test system: Mycobacterium tuberculosis
# Assay: Antitubercular activity against Mycobacterium tuberculosis H37Rv at 30 ug/disk by microdilution resazurin assay
# Assay type: functional, organism-based
row,Compound,Activity
1,CO[C@H]1/C=C/O[C@@]2(C)Oc3c(C)c(O)c4c(O)c(c(/C=N/N5CCN(C)CC5)c(O)c4c3C2=O)NC(=O)/C(C)=C\C=C\[C@H](C)[C@H](O)[C@@H](C)[C@@H](O)[C@@H](C)[C@H](OC(C)=O)[C@@H]1C [RIFAMPIN],Active

# Test system: Mycobacterium tuberculosis
# Assay: Antitubercular activity against Mycobacterium tuberculosis H37Rv by microdilution resazurin assay
# Assay type: functional
row,Compound,MIC [µg/mL]
1,CC1CCCCN1Cn1nc(-c2cccnc2)oc1=O (configuration not stated),32
2,CC1CCN(Cn2nc(-c3ccccc3)oc2=O)CC1,32
3,CN(Cc1ccccc1)Cn1nc(-c2ccncc2)oc1=O,8
4,CN(Cc1ccc(F)cc1)Cn1nc(-c2ccncc2)oc1=O,4
5,CN(Cc1cccc(F)c1)Cn1nc(-c2ccncc2)oc1=O,8
6,O=c1oc(-c2cnccn2)nn1CN1CCCCC1,> 64
7,O=c1[nH]nc(-c2ccccn2)o1,4
8,CC1CCN(Cn2nc(-c3cnccn3)oc2=O)CC1,> 64
9,CO[C@H]1/C=C/O[C@@]2(C)Oc3c(C)c(O)c4c(O)c(c(/C=N/N5CCN(C)CC5)c(O)c4c3C2=O)NC(=O)/C(C)=C\C=C\[C@H](C)[C@H](O)[C@@H](C)[C@@H](O)[C@@H](C)[C@H](OC(C)=O)[C@@H]1C [RIFAMPIN],1
10,CN(Cc1cccc2ccccc12)Cn1nc(-c2ccncc2)oc1=O,8
11,CC1CCN(Cn2nc(-c3cccnc3)oc2=O)CC1,> 64
12,O=c1oc(-c2ccccn2)nn1CN1CCCCC1,4
13,O=c1oc(-c2cccnc2)nn1CN1CCCCC1,32
14,O=c1[nH]nc(-c2ccncc2)o1 [NEOVADRINE],4
15,O=c1oc(-c2ccccc2)nn1CN1CCCCC1,32
16,O=c1[nH]nc(-c2cccnc2)o1,32
17,CC1CCCN(Cn2nc(-c3ccccc3)oc2=O)C1 (configuration not stated),32
18,O=c1[nH]nc(-c2ccccc2)o1,32

row,Compound,MIC [µg/mL]
1,CN(Cc1ccc(Br)cc1)Cn1nc(-c2ccncc2)oc1=O,4
2,CC1CCCCN1Cn1nc(-c2ccccc2)oc1=O (configuration not stated),32
3,CN(Cc1ccc(Cl)cc1Cl)Cn1nc(-c2ccncc2)oc1=O,8
4,CN(Cc1ccccc1Br)Cn1nc(-c2ccncc2)oc1=O,8
5,CN(Cc1ccccc1Cl)Cn1nc(-c2ccncc2)oc1=O,8
6,CN(Cc1cccc(Br)c1)Cn1nc(-c2ccncc2)oc1=O,4
7,CC1CCN(Cn2nc(-c3ccccn3)oc2=O)CC1,4
8,NNC(=O)c1ccncc1 [ISONIAZID],0.5
9,CC1CCCN(Cn2nc(-c3ccccn3)oc2=O)C1 (configuration not stated),4
10,CC1CCCN(Cn2nc(-c3cccnc3)oc2=O)C1 (configuration not stated),32
11,O=c1[nH]nc(-c2cnccn2)o1,> 64
12,CC1CCCCN1Cn1nc(-c2ccccn2)oc1=O (configuration not stated),4
13,CN(Cc1ccccc1F)Cn1nc(-c2ccncc2)oc1=O,4
14,CN(Cc1ccc(Cl)cc1)Cn1nc(-c2ccncc2)oc1=O,8
15,Cc1ccc(CN(C)Cn2nc(-c3ccncc3)oc2=O)cc1,4
16,CC1CCCN(Cn2nc(-c3cnccn3)oc2=O)C1 (configuration not stated),> 64
17,CN(Cc1cccc(Cl)c1)Cn1nc(-c2ccncc2)oc1=O,8

# Test system: Mycobacterium tuberculosis
# Assay: Antitubercular activity against Mycobacterium tuberculosis H37Rv at 5 ug/disk by microdilution resazurin assay
# Assay type: functional, organism-based
row,Compound,Activity
1,NNC(=O)c1ccncc1 [ISONIAZID],Active
